Entries after “also recorded” stand apart in the source; their conditions may differ. Read-outs that look alike come from different tables or passages of the source.
Key:
Peroxyl = details: compound 1 mM, BMPO 10 mM
MC65 cells = details: MTT
[1] = Hydroxyl radical scavenging, BMPO spin trap EPR; details: compound 1 mM, BMPO 10 mM
[2] = ROS scavenging activity, radical type not specified, BMPO spin trap EPR; details: compound 1 mM, BMPO 10 mM
[3] = target: T1, Acetylcholinesterase from bovine erythrocytes (Bos taurus, UniProt P23795); assay type: biochemical
T1 sequence (P23795 31-614 isoform P23795-2 limits assumed): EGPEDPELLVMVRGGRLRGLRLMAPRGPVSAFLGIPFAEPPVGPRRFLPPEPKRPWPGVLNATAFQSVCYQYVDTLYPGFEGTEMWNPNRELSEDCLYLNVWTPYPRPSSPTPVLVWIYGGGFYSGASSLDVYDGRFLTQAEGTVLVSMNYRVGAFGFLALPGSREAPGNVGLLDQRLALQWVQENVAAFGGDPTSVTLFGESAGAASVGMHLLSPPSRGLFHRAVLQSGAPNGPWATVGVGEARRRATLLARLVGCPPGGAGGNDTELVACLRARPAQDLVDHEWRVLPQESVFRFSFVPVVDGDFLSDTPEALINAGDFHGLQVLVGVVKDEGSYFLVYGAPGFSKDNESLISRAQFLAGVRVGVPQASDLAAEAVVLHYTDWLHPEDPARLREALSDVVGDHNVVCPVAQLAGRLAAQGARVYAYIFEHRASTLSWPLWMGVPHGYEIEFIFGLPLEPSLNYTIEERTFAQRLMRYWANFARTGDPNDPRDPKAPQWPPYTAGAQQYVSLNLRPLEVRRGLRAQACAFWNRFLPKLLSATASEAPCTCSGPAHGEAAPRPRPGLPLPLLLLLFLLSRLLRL

| SMILES | peroxyl / superoxide radical scavenging activity (in words) (Peroxyl) | protection against Aβ-induced cytotoxicity (in words) (MC65 cells) | hydroxyl radical scavenging activity (in words) [1] | ROS scavenging activity (in words) [2] | AChEI activity (in words) [3] | protection against Aβ-induced cytotoxicity (in words) (MC65 cells; listed as 9) | peroxyl / superoxide radical scavenging activity (in words) (Peroxyl; listed as 20) |
| --- | --- | --- | --- | --- | --- | --- | --- |
| Cl.Nc1c2c(nc3ccccc13)CCCC2 [1/HCl, reference compound] | limited | do not exhibit any protection | limited |  |  |  |  |
| Nc1c2c(nc3ccccc13)CCCC2 [1b, 9-amino-1,2,3,4-tetrahydroacridine, reference compound] | limited; also recorded: lack peroxyl radical scavenging activity |  | limited | no significant effect on the level of radical detected |  |  |  |
| CC1(C)C=C(CNc2c3c(nc4ccccc24)CCCC3)C(C)(C)N1[O] [4b, 2,2,5,5-Tetramethyl-3-[(1,2,3,4-tetrahydroacridin-9-yl)aminomethyl]-2,5-dihydro-1H-pyrrol-1-yloxyl Radical] | excellent | protection against Aβ-induced cytotoxicity |  | remarkable ROS scavenging activity | less AChEI activity than compound 1b |  |  |
| CC1(C)C=C(CN2CCN(c3c4c(nc5ccccc35)CCCC4)CC2)C(C)(C)N1[O] [9b, 2,2,5,5-Tetramethyl-3-[4-(1,2,3,4-tetrahydroacridin-9-yl)piperazin-1-ylmethyl]-2,5-dihydro-1H-pyrrol-1-yloxyl Radical] | excellent | protection against Aβ-induced cytotoxicity |  | remarkable ROS scavenging activity | less AChEI activity than compound 1b | remarkable cell protection |  |
| CC1(C)Cc2nc3ccccc3c(N)c2C(C)(C)N1 [16b, 1,1,3,3-tetramethyl-1,2,3,4-tetrahydrobenzo[b][1,6]naphthyridin-10-amine] | lack peroxyl radical scavenging activity | notable protective activity; also recorded: lower protective activity |  |  | inactive |  |  |
| CC1(C)Cc2nc3ccccc3c(N)c2C(C)(C)N1[O] [17b, 10-amino-1,1,3,3-tetramethyl-3,4-dihydrobenzo[b][1,6]naphthyridin-2(1H)-yloxyl Radical] | excellent | notable protective activity | superior |  |  |  |  |
| CC1(C)NC(C)(C)c2c1nc1ccccc1c2N [19b, 1,1,3,3-tetramethyl-2,3-dihydro-1H-pyrrolo[3,4-b]quinolin-9-amine] |  | notable protective activity; also recorded: lower protective activity |  |  |  |  |  |
| CC1(C)c2nc3ccccc3c(N)c2C(C)(C)N1[O] [20b, 9-amino-1,1,3,3-tetramethyl-1H-pyrrolo[3,4-b]quinolin-2(3H)-yloxyl Radical] | lack peroxyl radical scavenging activity | notable protective activity |  |  |  |  | excellent |
| CN1CCc2nc3ccccc3c(N)c2C1 [22b, 2-methyl-1,2,3,4-tetrahydrobenzo[b][1,6]naphthyridin-10-amine] | lack peroxyl radical scavenging activity | notable protective activity |  |  |  |  |  |
| CN1C(C)(C)Cc2nc3ccccc3c(N)c2C1(C)C [24b, 1,1,2,3,3-pentamethyl-1,2,3,4-tetrahydrobenzo[b][1,6]naphthyridin-10-amine] | lack peroxyl radical scavenging activity | notable protective activity |  |  | limited AChEI activity |  |  |
| CC1(C)C=C(CNc2c3c(nc4ccccc24)CCCC3)CC(C)(C)N1[O] [compound 5, 2,2,6,6-Tetramethyl-4-[(1,2,3,4-tetrahydroacridin-9-yl)aminomethyl]-1,2,3,6-tetrahydropyridin-1-yloxyl Radical] | excellent | protection against Aβ-induced cytotoxicity |  | remarkable ROS scavenging activity | less AChEI activity than compound 1b |  |  |
| c1ccc2c(N3CCNCC3)c3c(nc2c1)CCCC3 [compound 7, 9-(Piperazin-1-yl)-1,2,3,4-tetrahydroacridine] | limited; also recorded: lack peroxyl radical scavenging activity | do not provide any significant level of cell protection | limited |  |  |  |  |
| C#CCN1CCN(c2c3c(nc4ccccc24)CCCC3)CC1 [compound 10, 9-[4-(prop-2-yn-1-yl)piperazin-1-yl]-1,2,3,4-tetrahydroacridine] | limited; also recorded: lack peroxyl radical scavenging activity | do not provide any significant level of cell protection | limited |  | less AChEI activity than compound 1b |  |  |
| CC1(C)CC(n2cc(CN3CCN(c4c5c(nc6ccccc46)CCCC5)CC3)nn2)CC(C)(C)N1[O] [compound 12, 2,2,6,6-Tetramethyl-4-{4-[4-(1,2,3,4-tetrahydroacridin-9-yl)piperazin-1-ylmethyl]-1H-1,2,3-triazol-1-yl}piperidin-1-yloxyl Radical] | excellent | protection against Aβ-induced cytotoxicity; also recorded: remarkable cell protection |  | remarkable ROS scavenging activity; also recorded: most efficient | less AChEI activity than compound 1b; also recorded: active; also recorded: most efficient AChE inhibitors |  |  |
| COc1ccc(CN2CCN(c3c4c(nc5ccccc35)CCCC4)CC2)c(OC)c1OC [compound 13, 9-[4-(2,3,4-trimethoxybenzyl)piperazin-1-yl]-1,2,3,4-tetrahydroacridine] | lack peroxyl radical scavenging activity | notable protective activity |  | appreciable scavenging activity; also recorded: notable antioxidant activity |  |  |  |

From publication PMC4065883 (European journal of medicinal chemistry, 2014)
